Reference: patent US20180343865A1, “HERBICIDAL COMPOSITIONS COMPRISING ISOXAZOLO[5,4-B]PYRIDINES” (BASF SE, priority 2015, published 2018)
Where “and” joins values, the source holds several entries; their conditions need not be identical. Equal entries are not always repeated. Where two headings read alike, the source gives them in different places.

Columns and labels:
Type in all cases: in vivo
Ambrosia elatior = assay: Greenhouse postemergence herbicidal activity on AMBEL, 20 DAT; details: AMBEL, postemergence, 20 DAT
Procedure: (§1) For the post emergence treatment, the plants were first grown to the 2 leaf station (GS 12) and applied at GS 12-19 depending on the species. The herbicidal compositions were suspended or emulsified in water as distribution medium and sprayed using finely distributing nozzles.
(§2) The plants have been cultivated due to their individual requirements at 10 to 25° C. and. 20 to 35° C. The plants were irrigated due to their necessity.
(§3) The respective stated components A), were formulated as a 5% by weight strength emulsion concentrate containing wettol EM 31 20% and Cyclohexanone 80%. The respective stated components B), were formulated as either emulsifiable concentrates (EC), soluble liquids (SL), suspension concentrates (SC) or soluble granules (SG) as indicated in the table below. Component A, component B and the solvent system are introduced into the spray liquor used for applying the active compound. In the examples, the solvent used was water containing 1% Dash (Agnique ME 181 37.5%, Lutensit A-EP 22.5%, and Oleic Acid 5%) and 2% ammonium suflate.
(§4) In the following experiments, the herbicidal activity for the individual herbicide compounds (solo and mixture applications), the herbicidal succession was assessed 20 days after treatment (DAT). The evaluation for the damage on undesired weeds caused by the chemical compositions was carried out using a scale from 0 to 100%, compared to the untreated control plants. Here, 0 means no damage and 100 means complete destruction of the plants. The plants used in the greenhouse experiments belonged to the following species:
(§5) The value E, which corresponds to the effect (in %) that is to be expected if the activity of the individual compounds is additive, was calculated using the method of S. R. Colby (1967) “Calculating synergistic and antagonistic responses of herbicide combinations”, Weeds 15, p. 22 ff. Colby calculation for 2 way mixtures:
(§6) where: • X=effect in percent using herbicide A at an application rate a; • Y=effect in percent using herbicide B at an application rate b; • E=expected effect (in %) of A+B at application rates a+b
(§7) If the value observed in this manner is higher than the value E calculated according to Colby, a synergistic effect is present.

Setaria viridis = assay: Greenhouse postemergence herbicidal activity on SETVI, 20 DAT; details: post-emergence, 62.5 gai/ha, Table 8, read-out: % activity, solo application (I.A)
Procedure: as §1, §2
The respective stated components A), were formulated as a 5% by weight strength emulsion concentrate containing wettol EM 31 20% and Cyclohexanone 80%. The respective stated components B), were formulated as either emulsifiable concentrates (EC), soluble liquids (SL), suspension concentrates (SC) or soluble granules (SG) as indicated in the table below. […]
In the following experiments, the herbicidal activity for the individual herbicide compounds (solo and mixture applications), the herbicidal succession was assessed 20 days after treatment (DAT). […]
The value E, which corresponds to the effect (in %) that is to be expected if the activity of the individual compounds is additive, was calculated using the method of S. R. Colby (1967) “Calculating synergistic and antagonistic responses of herbicide combinations”, Weeds 15, p. […]
as §7

Polygonum convolvulus = assay: Greenhouse postemergence herbicidal activity on POLCO, 20 DAT; details: Fallopia convolvulus, post-emergence, POLCO, postemergence; for inhibition at 62.5 g/ha: 62.5 gai/ha
Procedure: as §1, §2, §3, §4, §5, §6, §7

Conyza canadiensis = assay: Greenhouse postemergence herbicidal activity on ERICA, 20 DAT; details: Conyza, post-emergence, ERICA, postemergence; for inhibition at 31.25 g/ha: 31.25 gai/ha
Procedure: as §1, §2, §3, §4, §5, §6, §7

Matricaria chamomilla = assay: Greenhouse postemergence herbicidal activity on MATCH, 20 DAT; details: Matricaria chamomilla, post-emergence, 62.5 gai/ha
Procedure: as §1, §2, §3, §4, §5, §6, §7

Polygonum aviculare = assay: Greenhouse postemergence herbicidal activity on POLAV, 20 DAT; details: Polygonum aviculare, post-emergence, 480 h, read-out: % activity, solo (I.A)
Procedure: as §1, §2, §3, §4, §5, §6, §7

Stellaria media = assay: Greenhouse postemergence herbicidal activity on STEME, 20 DAT; details: STEME, postemergence
Procedure: as §1, §2, §3, §4, §5, §6, §7

Sorghum bicolor = assay: Greenhouse postemergence herbicidal activity on SORVU, 20 DAT; details: Sorghum bicolor, post-emergence, 480 h, SORVU, postemergence, 20 DAT, read-out: % activity, solo (I.A)
Procedure: as §1, §2, §3, §4, §5, §6, §7

Kochia scoparia = assay: Greenhouse postemergence herbicidal activity on KCHSC, 20 DAT; details: for inhibition at 31.25 g/ha: 31.25 gai/ha; for inhibition at 62.5 g/ha: 62.5 gai/ha
Procedure: as §1, §2, §3, §4, §5, §6, §7

Galium aparine = assay: Greenhouse postemergence herbicidal activity on GALAP, 20 DAT; details: Galium aparine, post-emergence; for inhibition at 31.25 g/ha: 31.25 gai/ha; for inhibition at 62.5 g/ha: 62.5 gai/ha; for inhibition at 125 g/ha: 125 gai/ha; for inhibition at 250 g/ha: 250 gai/ha
Procedure: as §1, §2, §3, §4, §5, §6, §7

Amaranthus palmeri = assay: Greenhouse postemergence herbicidal activity on AMAPA, 20 DAT
Procedure: as §1, §2, §3, §4, §5, §6, §7

AVEFA = assay: Greenhouse postemergence herbicidal activity on AVEFA, 20 DAT; details: Avena fatua, post-emergence, Table 8, read-out: % activity, solo application (I.A)
CONAR = assay: Greenhouse postemergence herbicidal activity on CONAR, 20 DAT; details: post-emergence, Table 8, read-out: % activity, solo application (I.A)
DIGSA = assay: Greenhouse postemergence herbicidal activity on DIGSA, 20 DAT; details: Digitaria sanguinalis, post-emergence, Table 8, read-out: % activity, solo application (I.A)
[1] = 480 h, 15.6 gai/ha, 20 DAT, read-out: % activity, solo (I.A)
[2] = Table 6, read-out: % activity, solo application (I.A)
[3] = Table 8, read-out: % activity, solo application (I.A)
[4] = 480 h, 20 DAT, read-out: % activity, solo (I.A)
[5] = Bassia scoparia, post-emergence, Table 6, read-out: % activity, solo application (I.A)
[6] = Bassia scoparia, post-emergence, 480 h, 20 DAT, read-out: % activity, solo (I.A)

For CC(C)c1noc2nc(C3CC3)cc(C(=O)O)c12 [(I.A)], the “% activity, solo (I.A)” value (Ambrosia elatior; 31.25 gai/ha) was 50% and 25%, the inhibition at 15.6 g/ha (Ambrosia elatior; Ambrosia artemisiifolia, post-emergence, 480 h, 15.6 gai/ha, read-out: % activity, solo (I.A)) was 0% and the inhibition at 62.5 g/ha (Ambrosia elatior; Ambrosia artemisiifolia, post-emergence, 480 h, 62.5 gai/ha, read-out: % activity, solo (I.A)) was 70%. It also gave an inhibition at 62.5 g/ha (Setaria viridis) of 30%, an inhibition at 15.6 g/ha (Polygonum convolvulus; [1]) of 30% and an inhibition at 31.25 g/ha (Polygonum convolvulus; 31.25 gai/ha, Table 6, read-out: % activity, solo application (I.A)) of 73%. For the same compound, the inhibition at 62.5 g/ha (Polygonum convolvulus; [2]) was 95%, the inhibition at 62.5 g/ha (Polygonum convolvulus; [3]) was 35% and the inhibition at 125 g/ha (Polygonum convolvulus; 125 gai/ha, Table 6, read-out: % activity, solo application (I.A)) was 99%. The inhibition at 15.6 g/ha (Conyza canadiensis; [1]) was 40%, the inhibition at 31.25 g/ha (Conyza canadiensis; [4]) was 40% and the inhibition at 62.5 g/ha (Conyza canadiensis; 480 h, 62.5 gai/ha, 20 DAT, read-out: % activity, solo (I.A)) was 90%. For the same compound, the inhibition at 31.25 g/ha (Conyza canadiensis; [3]) was 35%, the inhibition at 62.5 g/ha (Matricaria chamomilla; [3]) was 70% and the inhibition at 62.5 g/ha (Matricaria chamomilla; [4]) was 65%. For the same compound, the inhibition at 15.6 g/ha (Polygonum aviculare; 15.6 gai/ha) was 10%, the inhibition at 31.25 g/ha (Polygonum aviculare; 31.25 gai/ha) was 35% and the inhibition at 62.5 g/ha (Polygonum aviculare; 62.5 gai/ha) was 50%. For the same compound, the inhibition at 125 g/ha (Polygonum aviculare; 125 gai/ha) was 90%, the “% activity, solo (I.A)” value (Stellaria media; 31.25 gai/ha, 20 DAT) was 35% and the “% activity, solo (I.A)” value (Stellaria media; 62.5 gai/ha, 20 DAT) was 70% and 95%. For the same compound, the inhibition at 31.25 g/ha (Stellaria media; Stellaria media, post-emergence, 480 h, 31.25 gai/ha, 20 DAT, read-out: % activity, solo (I.A)) was 20%, the inhibition at 15.6 g/ha (Stellaria media; Stellaria media, post-emergence, 15.6 gai/ha, Table 8, read-out: % activity, solo application (I.A)) was 0% and the inhibition at 31.25 g/ha (Stellaria media; Stellaria media, post-emergence, 31.25 gai/ha, Table 8, read-out: % activity, solo application (I.A)) was 0%. It also gave an inhibition at 62.5 g/ha (Stellaria media; Stellaria media, post-emergence, 62.5 gai/ha, Table 8, read-out: % activity, solo application (I.A)) of 0%, an inhibition at 15.6 g/ha (Sorghum bicolor; 15.6 gai/ha) of 30% and an inhibition at 31.25 g/ha (Sorghum bicolor; 31.25 gai/ha) of 30%. For the same compound, the inhibition at 62.5 g/ha (Sorghum bicolor; 62.5 gai/ha) was 30%, the inhibition at 125 g/ha (Sorghum bicolor; 125 gai/ha) was 40% and the “% activity, solo (I.A)” value (Kochia scoparia; 125 gai/ha, 20 DAT) was 95%. It also gave an inhibition at 31.25 g/ha (Kochia scoparia; [5]) of 30%, an inhibition at 62.5 g/ha (Kochia scoparia; [5]) of 63% and an inhibition at 31.25 g/ha (Kochia scoparia; [6]) of 35%. The inhibition at 62.5 g/ha (Kochia scoparia; [6]) was 68%, the inhibition at 125 g/ha (Kochia scoparia; Bassia scoparia, post-emergence, 480 h, 125 gai/ha, 20 DAT, read-out: % activity, solo (I.A)) was 90% and the inhibition at 31.25 g/ha (Galium aparine; [2]) was 43%. The inhibition at 62.5 g/ha (Galium aparine; [2]) was 60%, the inhibition at 62.5 g/ha (Galium aparine; [3]) was 45% and the inhibition at 125 g/ha (Galium aparine; [2]) was 73%. For the same compound, the inhibition at 250 g/ha (Galium aparine; [2]) was 95%, the inhibition at 31.25 g/ha (Galium aparine; [4]) was 43% and the inhibition at 62.5 g/ha (Galium aparine; [4]) was 60%. The inhibition at 125 g/ha (Galium aparine; [4]) was 73%, the inhibition at 250 g/ha (Galium aparine; [4]) was 95% and the “% activity, solo (I.A)” value (Amaranthus palmeri; 62.5 gai/ha) was 89%. The inhibition at 15.6 g/ha (Amaranthus palmeri; Amaranthus palmeri, post-emergence, 480 h, 15.6 gai/ha, read-out: % activity, solo (I.A)) was 5%, the inhibition at 31.25 g/ha (Amaranthus palmeri; Amaranthus palmeri, post-emergence, 480 h, 31.25 gai/ha, read-out: % activity, solo (I.A)) was 80% and the inhibition at 62.5 g/ha (Amaranthus palmeri; Amaranthus palmeri, post-emergence, 480 h, 62.5 gai/ha, read-out: % activity, solo (I.A)) was 80%. It also gave an inhibition at 15.6 g/ha (AVEFA; 15.6 gai/ha) of 0%, an inhibition at 62.5 g/ha (AVEFA; 62.5 gai/ha) of 20% and an inhibition at 7.8 g/ha (CONAR; 7.8 gai/ha) of 0%. It also gave an inhibition at 15.6 g/ha (CONAR; 15.6 gai/ha) of 0%, an inhibition at 31.25 g/ha (CONAR; 31.25 gai/ha) of 0% and an inhibition at 62.5 g/ha (CONAR; 62.5 gai/ha) of 35%. For the same compound, the inhibition at 31.25 g/ha (DIGSA; 31.25 gai/ha) was 0% and the inhibition at 62.5 g/ha (DIGSA; 62.5 gai/ha) was 0%.
